Assay results published in US20050032873A1, “3-Amino chroman and 2-amino tetralin derivatives” (Wyeth, priority 2003, published 2005).
pEC50, pIC50, pKi: −log10 of the molar value. Like-named read-outs stand apart in the source and are kept apart here.

What was measured:
[1] = biological target: T1, serotonin transporter (Rattus norvegicus, UniProt P31652); assay: 5-HT transporter affinity: displacement of 3H-paroxetine from male rat cortical membranes; assay type: binding; conditions: displacement of 3H-paroxetine, male rat cortical membranes; for pKi: read-out: 5-HT Transporter Affinity Ki
T1 construct: displace ^3H-paroxetine from male rat cortical membranes; from tissue; host or cells: male rat cortical membranes

[2] = biological target: T2, cloned human 5-HT1A receptors (Homo sapiens, UniProt P08908); assay: 35S-GTPγS binding assay, 5-HT1A function; assay type: biochemical; conditions: for pIC50: read-out: 5-HT1A Function GTPγS IC50; for pEC50: agonist potency
T2 construct: expressed in transfected cells
T2 sequence (P08908 1-422): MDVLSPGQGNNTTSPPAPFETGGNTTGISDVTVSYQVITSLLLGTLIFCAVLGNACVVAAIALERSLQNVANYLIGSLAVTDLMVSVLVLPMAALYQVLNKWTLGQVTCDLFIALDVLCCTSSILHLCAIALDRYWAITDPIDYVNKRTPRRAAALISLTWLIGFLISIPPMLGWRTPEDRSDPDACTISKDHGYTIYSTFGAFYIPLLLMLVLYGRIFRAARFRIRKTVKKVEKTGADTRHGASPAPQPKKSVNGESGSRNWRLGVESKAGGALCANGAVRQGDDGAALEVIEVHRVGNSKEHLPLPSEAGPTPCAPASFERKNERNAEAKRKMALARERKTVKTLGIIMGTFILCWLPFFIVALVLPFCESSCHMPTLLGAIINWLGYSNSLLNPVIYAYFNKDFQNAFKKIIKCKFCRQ

[3] = biological target: T3, 5-HT1A receptor (Homo sapiens, UniProt P08908); assay: cAMP accumulation assay, 5-HT1A function; assay type: cell-based; conditions: for pIC50: read-out: 5-HT1A Function cAMP IC50; for Emax / 5-HT1A Function cAMP (Emax): in brackets after EC50 or IC50; for Emax: read-out: 5-HT1A Function cAMP (Emax); for pEC50: cells marked EC50 (agonist)
T3 sequence (P08908 1-422): T2 sequence (P08908 1-422)

[4] = biological target: T3, 5-HT1A receptor; assay: 5-HT1A receptor affinity: displacement of [3H] 8-OH-DPAT; assay type: binding; set-up: expressed in transfected cells; conditions: displacement of [3H] 8-OH-DPAT, CHO cells stably transfected with human 5-HT1A receptors; for pKi: read-out: 5-HT1A Receptor Affinity Ki
[5] = antagonist potency, reversal of 8-OH-DPAT
[6] = maximum inhibitory effect, in brackets after IC50, read-out: 5-HT1A Function GTPγS (Imax)
[7] = maximum stimulatory effect, in brackets after EC50, read-out: 5-HT1A Function GTPγS (Emax)
[8] = maximum stimulatory effect, in brackets after EC50

T1 sequence (P31652 whole entry): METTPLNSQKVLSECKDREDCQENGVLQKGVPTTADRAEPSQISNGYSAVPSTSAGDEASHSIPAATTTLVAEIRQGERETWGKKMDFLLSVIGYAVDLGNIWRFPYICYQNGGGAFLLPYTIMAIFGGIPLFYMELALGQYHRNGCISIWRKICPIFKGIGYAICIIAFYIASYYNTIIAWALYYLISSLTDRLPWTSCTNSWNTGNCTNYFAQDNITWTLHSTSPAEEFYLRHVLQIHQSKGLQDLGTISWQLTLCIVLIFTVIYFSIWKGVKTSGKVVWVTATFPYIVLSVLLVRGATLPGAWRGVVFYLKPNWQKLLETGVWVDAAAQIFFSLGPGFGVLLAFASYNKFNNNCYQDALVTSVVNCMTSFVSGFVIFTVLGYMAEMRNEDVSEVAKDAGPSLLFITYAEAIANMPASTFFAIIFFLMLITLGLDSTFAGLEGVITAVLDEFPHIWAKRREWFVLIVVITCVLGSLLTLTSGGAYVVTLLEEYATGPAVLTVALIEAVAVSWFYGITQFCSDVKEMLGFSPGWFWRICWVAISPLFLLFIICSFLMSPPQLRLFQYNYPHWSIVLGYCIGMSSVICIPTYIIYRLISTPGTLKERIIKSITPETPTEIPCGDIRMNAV

Molecule: N#Cc1ccc2[nH]cc(CCCN(CC3CC3)[C@H]3COc4c(F)ccc(C(N)=O)c4C3)c2c1 [Compound 98b, (3R)-3-[[3-(5-cyano-1H-indol-3-yl)propyl](cyclopropylmethyl)amino]-8-fluorochromane-5-carboxamide]
- pKi [1]: 8.26
- pIC50 [2, 5]: 6.34
- Emax [2, 6]: 99%
- pIC50 ([3]; cells marked IC50 (antagonist)): 6.79
- Emax [3]: 0%
- pKi [4]: 8.17

Molecule: CCN(CCCCc1c[nH]c2ccc(F)cc12)C1COc2c(C(N)=O)ccc(F)c2C1 (stereo not drawn) [Compound 127, 3-{ethyl[4-(5-fluoro-1H-indol-3-yl)butyl]amino}-5-fluorochromane-8-carboxamide]
- pKi [1]: 8.00
- pEC50 [2]: 5.89
- Emax [2, 7]: 50%
- pEC50 [3]: 6.11
- Emax [3]: 81.5%
- pKi [4]: 6.49

Molecule: CCCN(CCCc1c[nH]c2ccc(F)cc12)[C@@H]1COc2c(F)ccc(OC)c2C1 [Compound 27, (3S)-8-fluoro-N-[3-(5-fluoro-1H-indol-3-yl)propyl]-5-methoxy-N-propylchroman-3-amine]
- pKi [1]: 7.87
- pEC50 [2]: 6.93
- Emax [2, 7]: 97%
- pEC50 [3]: 7.79
- Emax [3]: 88.5%
- pKi [4]: 7.90

Molecule: NC(=O)c1cccc2c1CC(N(CCCc1c[nH]c3ccc(F)cc13)C1CCC1)CO2 (single isomer, unassigned; (+)) [Compound 134b, (+)-3-{cyclobutyl[3-(5-fluoro-1H-indol-3-yl)propyl]amino}chromane-5-carboxamide]
- pKi [1]: 8.14
- pEC50 [2]: 6.24
- 5-HT1A Function GTPγS (Emax) [2, 8]: 71%
- pEC50 [3]: 7.35
- 5-HT1A Function cAMP (Emax) [3]: 66.5%
- pKi [4]: 7.53

Molecule: CCCN(C(C)CCc1c[nH]c2ccc(F)cc12)C1COc2c(F)ccc(C(N)=O)c2C1 (single isomer, unassigned) [Compound 12b, 8-fluoro-3-[[3-(5-fluoro-1H-indol-3-yl)-1-methylpropyl](propyl)amino]-3,4-dihydro-2H-chromene-5-carboxamide]
- pKi [1]: 7.30
- pEC50 [2]: 6.44
- Emax [2, 7]: 73.5%
- pEC50 [3]: 7.20
- 5-HT1A Function cAMP (Emax) [3]: 78%
- pKi [4]: 7.71

Molecule: [3-(5-fluoro-1H-indol-3-yl)-propyl]-(8-fluoro-5-methoxychroman-3-yl)propylamine [Compound 26]
- pKi [1]: 7.90
- pEC50 [2]: 6.68
- 5-HT1A Function GTPγS (Emax) [2, 8]: 79.5%
- pEC50 [3]: 7.63
- 5-HT1A Function cAMP (Emax) [3]: 83.5%
- pKi [4]: 7.71

Molecule: [3-(5-fluoro-1H-indol-3-yl)-propyl]-((3S)-5-methoxychroman-3-yl)propylamine [Compound 25]
- pKi [1]: 7.78
- pEC50 [2]: 6.81
- 5-HT1A Function GTPγS (Emax) [2, 8]: 88%
- pEC50 [3]: 8.97
- 5-HT1A Function cAMP (Emax) [3]: 93.5%
- pKi [4]: 7.61

Molecule: NC(=O)c1ccc(F)c2c1CC(N(CCC(=O)c1c[nH]c3ccc(F)cc13)C1CCC1)CO2 (stereo not drawn) [Compound 8, 3-{cyclobutyl[3-(5-fluoro-1H-indol-3-yl)-3-oxopropyl]amino}-8-fluorochromane-5-carboxamide]
- pKi [1]: 6.59
- pIC50 [2, 5]: 5.86
- Emax [2, 6]: 100%
- pIC50 ([3]; cells marked IC50 (antagonist)): 6.32
- Emax [3]: 0%
- pKi [4]: 6.99

Molecule: CNC(=O)c1ccc(F)c2c1CC(N(CCc1c[nH]c3ccc(F)cc13)C1CCC1)CO2 (stereo not drawn) [Compound 87, 3-{cyclobutyl[2-(5-fluoro-1H-indol-3-yl)ethyl]amino}-8-fluoro-N-methylchromane-5-carboxamide]
- pKi [1]: 7.58
- pIC50 [2, 5]: 6.29
- Emax [2, 6]: 100%
- pIC50 ([3]; cells marked IC50 (antagonist)): 6.76
- Emax [3]: 0%
- pKi [4]: 8.15

Molecule: COC(=O)c1ccc(F)c2c1CC(NCCCc1c[nH]c3ccc(F)cc13)CO2 (stereo not drawn) [Compound 10, Methyl 8-fluoro-3-{[3-(5-fluoro-1H-indol-3-yl)propyl]amino}chromane-5-carboxylate]
- pKi [1]: 7.96
- pEC50 [2]: 7.52
- Emax [2, 7]: 85%
- pEC50 [3]: 7.79
- Emax [3]: 70.5%
- pKi [4]: 8.20

Molecule: CCCN(CCc1c[nH]c2ccc(F)cc12)C1CCc2cccc(OC)c2C1 (stereo not drawn) [Compound 48, N-[2-(5-fluoro-1H-indol-3-yl)ethyl]-N-(8-methoxy-1,2,3,4-tetrahydronaphthalen-2-yl)-N-propylamine]
- pKi [1]: 8.19
- pEC50 [2]: 7.62
- Emax [2, 7]: 93%
- pEC50 [3]: 7.46
- Emax [3]: 89%
- pKi [4]: 8.22

Molecule: CCCN(CCCc1c[nH]c2c(OC)cccc12)C1COc2c(F)ccc(C(N)=O)c2C1 (stereo not drawn) [Compound 100, 8-fluoro-3-[[3-(7-methoxy-1H-indol-3-yl)propyl](propyl)amino]chromane-5-carboxamide]
- pKi [1]: 6.85
- pEC50 [2]: 7.17
- Emax [2, 7]: 100%
- pEC50 [3]: 7.21
- Emax [3]: 87%
- pKi [4]: 8.41

Molecule: C[C@H](CCN(C1CCC1)[C@H]1COc2c(F)ccc(C(N)=O)c2C1)c1c[nH]c2ccc(F)cc12 [Compound 152a, (3R)-3-{cyclobutyl[(3R)-3-(5-fluoro-1H-indol-3-yl)butyl]amino}-8-fluorochromane-5-carboxamide]
- pKi [1]: 6.74
- pIC50 [2, 5]: 5.66
- Emax [2, 6]: 100%
- pIC50 ([3]; cells marked IC50 (antagonist)): 6.26
- Emax [3]: 0%
- pKi [4]: 7.70

Molecule: COc1cccc2c1CC(N(CCCc1c[nH]c3ccccc13)C1CCC1)CO2 (stereo not drawn) [Compound 44, N-cyclobutyl-N-[3-(1H-indol-3-yl)propyl]-N-(5-methoxy-3,4-dihydro-2H-chromen-3-yl)amine]
- pKi [1]: 7.33
- pIC50 [2, 5]: 6.62
- Emax [2, 6]: 59%
- pEC50 [3]: 7.15
- Emax [3]: 80.5%
- pKi [4]: 7.67

Molecule: CCN(CCCc1c[nH]c2c(OC)cccc12)C1COc2c(F)ccc(C(N)=O)c2C1 (stereo not drawn) [Compound 101, 3-{ethyl[3-(7-methoxy-1H-indol-3-yl)propyl]amino}-8-fluorochromane-5-carboxamide]
- pKi [1]: 6.19
- pEC50 [2]: 6.99
- Emax [2, 7]: 99%
- pEC50 [3]: 7.35
- Emax [3]: 68.5%
- pKi [4]: 9.30

Molecule: CCN(CCc1c[nH]c2ccc(F)cc12)C1COc2c(F)ccc(C(N)=O)c2C1 (stereo not drawn) [Compound 76, 3-{ethyl[2-(5-fluoro-1H-indol-3-yl)ethyl]amino}-8-fluorochromane-5-carboxamide]
- Ki ([1]; 5-HT Transporter Affinity Ki (nM)): 52 nM
- IC50 ([2]; 5-HT1A Function GTPγS IC50 (nM), antagonist potency, reversal of 8-OH-DPAT): 470 nM
- Emax [2, 6]: 68%
- IC50 ([3]; 5-HT1A Function cAMP IC50 (nM), cells marked IC50 (antagonist)): 68.2 nM
- Emax [3]: 0%
- Ki ([4]; 5-HT1A Receptor Affinity Ki (nM)): 31.3 nM

Molecule: NC(=O)c1cccc2c1CC(N(CCCc1c[nH]c3ccc(F)cc13)CC1CC1)CO2 (stereo not drawn) [Compound 148, 3-{(cyclopropylmethyl)[3-(5-fluoro-1H-indol-3-yl)propyl]amino}chromane-5-carboxamide]
- pKi [1]: 8.49
- pEC50 [2]: 8.09
- Emax [2, 7]: 81%
- pEC50 [3]: 9.27
- Emax [3]: 100%
- pKi [4]: 9.48

Molecule: CCN(CCCc1c[nH]c2c(F)cc(F)cc12)C1COc2c(C(N)=O)ccc(F)c2C1 (stereo not drawn) [Compound 132, 3-[[3-(5,7-difluoro-1H-indol-3-yl)propyl](ethyl)amino]-5-fluorochromane-8-carboxamide]
- pKi [1]: 7.30
- pEC50 [2]: 5.65
- Emax [2, 7]: 98%
- pEC50 [3]: 6.95
- Emax [3]: 63%
- pKi [4]: 7.02
